# Activity calls are given as the source filed them. The calls are words filed in the database; no cut-off is given here.
# Columns and labels:
# [1] = test system: BV-2; experiment: (§1) Cytotoxicity against LPS-induced mouse BV-2 cells assessed as cell survival at 80 uM measured after 24 hrs incubation by MTT assay; format: toxicity, cell-based; conditions: bv-2, 24 h, 80 µM
# [2] = test system: BV-2; experiment: Anti-inflammatory activity against LPS-induced mouse BV-2 cells assessed as inhibition rate of LPS-induced […] production at 80 uM pretreated for 1 hr followed by challenged with LPS and measured after 24 hrs incubation by Griess assay; format: functional; conditions: time 25 hrs
# [3] = test system: Mus musculus; experiment: Anti-neuroinflammatory activity against LPS-induced reference memory loss in C57BL/6 mouse model assessed as increase in time spent in target quadrant at 100 mg/kg, po measured up to 5 days by reference memory (probe trial) test; format: functional, organism-based; conditions: time <= 5.0 day
# [4] = test system: Mus musculus; experiment: Anti-neuroinflammatory activity against LPS-induced reference memory loss in C57BL/6 mouse model assessed as increase in number of times cross the target quadrant at 100 mg/kg, po measured up to 5 days by reference memory (probe trial) test; format: functional, organism-based; conditions: time <= 5.0 day
# [5] = test system: Mus musculus; experiment: Anti-neuroinflammatory activity against LPS-induced C57BL/6 mouse model assessed as reversal of LPS-induced TNFalpha increase in hippocampal homogenate at 100 mg/kg, po measured up to 5 days by ELISA kit; format: functional, organism-based; conditions: time <= 5.0 day
# [6] = test system: Mus musculus; experiment: Anti-neuroinflammatory activity against LPS-induced C57BL/6 mouse model assessed as reversal of LPS-induced IL-1 beta increase in hippocampal homogenate at 100 mg/kg, po measured up to 5 days by ELISA kit; format: functional, organism-based; conditions: time <= 5.0 day
# [7] = test system: BV-2; experiment: Anti-inflammatory activity against LPS-induced mouse BV-2 cells assessed as inhibition rate of LPS-induced NO production pretreated for 1 hr followed by challenged with LPS and measured after 24 hrs incubation by Griess assay; format: functional, cell-based
# [8] = test system: BV-2; experiment: Anti-inflammatory activity against LPS-induced mouse BV-2 cells assessed as inhibition rate of LPS-induced TNFalpha production pretreated for 1 hr followed by challenged with LPS and measured after 24 hrs incubation by ELISA assay; format: functional, cell-based
# [9] = test system: BV-2; experiment: Anti-inflammatory activity against LPS-induced mouse BV-2 cells assessed as inhibition rate of LPS-induced IL-1beta production pretreated for 1 hr followed by challenged with LPS and measured after 24 hrs incubation by ELISA assay; format: functional, cell-based
# [10] = as §1; format: toxicity, cell-based; conditions: LPS-induced BV-2 cells, read-out: Survival
# [11] = test system: Mus musculus; experiment: Anti-neuroinflammatory activity against LPS-induced spatial learning loss in C57BL/6 mouse model assessed as shortening of escape latency at 100 mg/kg, po measured up to 5 days by Morris water maze test; format: functional, organism-based; conditions: time <= 5.0 day
# [12] = test system: Mus musculus; experiment: Anti-neuroinflammatory activity against LPS-induced spatial learning in C57BL/6 mouse model assessed as swimming pathway at 100 mg/kg, po measured up to 5 days by Morris water maze test; format: functional, organism-based; conditions: time <= 5.0 day
# [13] = test system: Mus musculus; experiment: Anti-neuroinflammatory activity against LPS-induced C57BL/6 mouse model assessed as reversal of LPS-induced TNFalpha increase in cortex at 100 mg/kg, po measured up to 5 days by ELISA kit; format: functional, organism-based; conditions: time <= 5.0 day
# [14] = test system: Mus musculus; experiment: Anti-neuroinflammatory activity against LPS-induced C57BL/6 mouse model assessed as reversal of LPS-induced IL-1 beta increase in cortex at 100 mg/kg, po measured up to 5 days by ELISA kit; format: functional, organism-based; conditions: time <= 5.0 day
# [15] = test system: Mus musculus; experiment: Anti-neuroinflammatory activity against LPS-induced neuronal damage C57BL/6 mouse model assessed as restoration of number of normal neuronal cells in hippocampus at 100 mg/kg, po measured up to 5 days by Nissl staining based assay; format: functional, organism-based; conditions: time <= 5.0 day
# [16] = test system: Mus musculus; experiment: Anti-neuroinflammatory activity against LPS-induced neuronal damage C57BL/6 mouse model assessed as restoration of number of normal neuronal cells in cortex at 100 mg/kg, po measured up to 5 days by Nissl staining based assay; format: functional, organism-based; conditions: time <= 5.0 day
compound,measurement,setting,value
CC(C)=CC(=O)CC(C)c1ccc(-c2ccccc2)cc1 (centres undefined),Activity,[1],Non-toxic
same,inhibition at 80 µM,[2],18.9%
CCCCc1nc(-c2ccc(OCCCN(CC)CC)cc2)cn1-c1ccc(Oc2ccc(Cl)cc2)cc1,Activity,[3],Active
same,Activity,[4],Active
same,Activity,[5],Active
same,Activity,[6],Active
CC(C)=CC(=O)CC(c1ccc(-c2ccccc2)cc1)C(C)C (centres undefined),Activity,[1],Non-toxic
same,inhibition at 80 µM,[2],69.7%
same,IC50,[7],26.6 µM
same,IC50,[8],51.4 µM
same,IC50,[9],56.2 µM
CCCc1ccc(CNC(=O)C=C(C)C)cc1,"viability at 24 h, 80 µM",[10],> 80%
same,inhibition at 80 µM,[2],59.8%
same,IC50,[7],49.4 µM
same,IC50,[8],53.6 µM
same,IC50,[9],43.9 µM
CCCC(OC(=O)C=C(C)C)c1ccc(-c2ccccc2)cc1 (centres undefined),"viability at 24 h, 80 µM",[10],> 80%
same,inhibition at 80 µM,[2],14.9%
CC(C)=CC(=O)CC(c1ccc(C)cc1)C(C)C (centres undefined),"viability at 24 h, 80 µM",[10],> 80%
same,inhibition at 80 µM,[2],71%
same,IC50,[7],30.9 µM
same,IC50,[8],46.5 µM
same,IC50,[9],42.4 µM
CC(C)=CC(=O)OC(C)c1ccc(C(F)(F)F)cc1 (centres undefined),"viability at 24 h, 80 µM",[10],> 80%
same,inhibition at 80 µM,[2],28.2%
CC(C)=CC(=O)CC(c1ccc(F)cc1)c1ccc(C(F)(F)F)cc1 (centres undefined),"viability at 24 h, 80 µM",[10],> 80%
same,inhibition at 80 µM,[2],19.1%
CC(C)=CC(=O)NC(C)c1ccc(C)cc1 (centres undefined),"viability at 24 h, 80 µM",[10],> 80%
same,inhibition at 80 µM,[2],79.8%
same,IC50,[7],17.3 µM
same,IC50,[8],27.5 µM
same,IC50,[9],14 µM
same,Activity,[11],Active
same,Activity,[12],Active
same,Activity,[5],Active
same,Activity,[6],Active
same,Activity,[13],Active
same,Activity,[14],Active
CC(C)=CC(=O)NC(C)c1ccccc1 (centres undefined),inhibition at 80 µM,[2],22.3%
CC(C)=CC(=O)C[C@@H](C)c1ccc(C)cc1,IC50,[7],29.1 µM
same,IC50,[8],40.9 µM
same,IC50,[9],23.1 µM
CC(C)=CC(=O)NC(C)c1ccc(-c2ccccc2)cc1 (centres undefined),Activity,[1],Non-toxic
same,inhibition at 80 µM,[2],16.9%
CC(C)=CC(=O)NC(C)c1ccc(Cl)cc1 (centres undefined),"viability at 24 h, 80 µM",[10],> 80%
same,inhibition at 80 µM,[2],38%
CC(C)=CC(=O)CC(C)c1ccccc1Cl (centres undefined),"viability at 24 h, 80 µM",[10],> 80%
same,inhibition at 80 µM,[2],47.7%
CC(C)=CC(=O)CC(C)c1ccc(C)cc1 (racemic),"viability at 24 h, 80 µM",[10],> 80%
same,inhibition at 80 µM,[2],81.5%
same,IC50,[7],30.2 µM
same,IC50,[8],42.5 µM
same,IC50,[9],19.7 µM
CC(C)=CC(=O)C[C@H](C)c1ccc(C)cc1,"viability at 24 h, 80 µM",[10],> 80%
same,IC50,[7],25.4 µM
same,IC50,[8],39.9 µM
same,IC50,[9],18.5 µM
same,Activity,[5],Active
same,Activity,[6],Active
same,Activity,[15],Active
same,Activity,[16],Active
CC(C)=CC(=O)NC(c1ccccc1)c1ccc(C)cc1 (centres undefined),"viability at 24 h, 80 µM",[10],> 80%
same,inhibition at 80 µM,[2],71%
same,IC50,[7],30.4 µM
same,IC50,[8],50.3 µM
same,IC50,[9],54.1 µM
same,Activity,[11],Active
same,Activity,[12],Active
same,Activity,[5],Active; Compound Exhibited Superior Effect Compared To Ar-Turmerone
same,Activity,[6],Active; Compound Exhibited Superior Effect Compared To Ar-Turmerone
CC(C)=CC(=O)NC(C)c1ccc(C(F)(F)F)cc1 (centres undefined),"viability at 24 h, 80 µM",[10],> 80%
same,inhibition at 80 µM,[2],28%
CC(C)=CC(=O)OC(C)c1ccc(Cl)cc1 (centres undefined),"viability at 24 h, 80 µM",[10],> 80%
same,inhibition at 80 µM,[2],15.8%
CC(C)=CC(=O)OC(C)c1ccc2ccccc2c1 (centres undefined),"viability at 24 h, 80 µM",[10],> 80%
same,inhibition at 80 µM,[2],7.97%
CC(C)=CC(=O)OC(C)c1ccc(-c2ccccc2)cc1 (centres undefined),"viability at 24 h, 80 µM",[10],> 80%
same,inhibition at 80 µM,[2],44.5%
CC(C)=CC(=O)OC(C)c1ccc(C)cc1 (centres undefined),"viability at 24 h, 80 µM",[10],> 80%
same,inhibition at 80 µM,[2],64.5%
same,IC50,[7],42.5 µM
same,IC50,[8],28.5 µM
same,IC50,[9],34 µM
same,Activity,[11],Active
same,Activity,[12],Active
same,Activity,[5],Active
same,Activity,[6],Active
CC(C)=CC(=O)CC(c1ccc(C)cc1)c1ccc(F)cc1 (centres undefined),"viability at 24 h, 80 µM",[10],> 80%
same,inhibition at 80 µM,[2],8.15%
CC(C)=CC(=O)OC(C)c1ccccc1 (centres undefined),inhibition at 80 µM,[2],24.9%
CC(C)=CC(=O)CC(C)c1ccc(C(F)(F)F)cc1 (centres undefined),"viability at 24 h, 80 µM",[10],> 80%
same,inhibition at 80 µM,[2],26.8%
CC(C)=CC(=O)NC(C)c1ccc2ccccc2c1 (centres undefined),"viability at 24 h, 80 µM",[10],> 80%
same,inhibition at 80 µM,[2],60.1%
same,IC50,[7],44.2 µM
same,IC50,[8],24.5 µM
same,IC50,[9],32.5 µM
same,Activity,[11],Active
same,Activity,[12],Active
same,Activity,[3],Active
same,Activity,[4],Active
same,Activity,[5],Active
same,Activity,[6],Active
same,Activity,[13],Active
same,Activity,[14],Active
same,Activity,[15],Active; Compound Exhibited Superior Effect Compared To Ar-Turmerone And Ttp488
same,Activity,[16],Active; Compound Exhibited Superior Effect Compared To Ar-Turmerone And Ttp488
CC(C)=CC(=O)CC(c1ccc(F)cc1)c1ccc(-c2ccccc2)cc1 (centres undefined),Activity,[1],Non-toxic
same,inhibition at 80 µM,[2],29.3%

# — ChEMBL document CHEMBL6078665, “Structural optimization of naturally derived Ar-turmerone, as novel neuroinflammation suppressors effective in an Alzheimer mouse model” (Bioorg Med Chem, 2025)
